Measured values taken from article PMC8145430 (Chemical Science, 2019).

System: A549 cells
Experiment: Confocal imaging of intracellular localization of fluorescein-labeled peptides
Type: cell-based, human
Details: 1 μM, 10 minutes, 37°C, confocal images

Substance: H-GLFDIIKKIAESF-K(FAM)K5SKTKC(Far)-OMe [FAM-Memrasin]
- tethering on the PM: displays a clearer tethering on the PM
